The source of these data is PMC6283615, “Anilinoquinoline based inhibitors of trypanosomatid proliferation” (PLoS Neglected Tropical Diseases, 2018).

Values after ≈ are worked out from the molar mass of the structure shown. Where two headings read alike, the source gives them in different places.

Data set [1] has as its system L. major amastigote. Kind of data set: L. major intracellular amastigote luciferase assay in RAW 264.7 macrophages. The conditions noted are these: Leishmania major, RAW264.7; intracellular amastigotes in RAW 264.7 macrophages, 96 h. The data set is classed as cell-based, Leishmania major. Summed up:
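Murine RAW 264.7 macrophages were infected overnight with luciferase-expressing L. major metacyclic promastigotes (MOI 1:10). Non-internalized parasites were washed off before 96 h compound exposure (0.5–10,000 ng/mL) at 37°C, 5% CO2.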

The test system of data set [2] is T. vivax STIB 719 / ILRAD 560. The data set can be described thus: Ex vivo drug sensitivity assay for T. vivax (48 h). To be noted: Trypanosoma vivax, STIB719, 48 h. The data set is classed as cell-based. As to the method:
Ex vivo drug sensitivity assay for T. vivax (48 h): Compounds were tested ex vivo against the STIB 719 / ILRAD 560 T. vivax (drug sensitive) strain which originated from the Y486 strain, isolated from a naturally infected bovine in 1976 in Zaria, Nigeria. Compounds were assayed in at least three separate, independent experiments and an 11-point dilution curve was used to determine the EC50 values. Bloodstream form trypanosomes were harvested from a highly parasitaemic mouse (via cardiac puncture) and were incubated with test compounds for 45 h at 37°C in a humidified atmosphere containing 5% CO2, supported in HMI-9 medium containing 20% bovine serum. Thereafter, Resazurin dye was added to monitor trypanosome viability as described in the preceding section.

The test system of data set [3] is NIH/3T3 cells. The data set can be described thus: Drug toxicity to 3T3 cells (Alamar Blue, 96 h). The data set is classed as cell-based. A general note: The colour change of resazurin is a common sign of viable cells or microbes.
A short description of data set [4]: Human liver microsome intrinsic clearance. The data set is classed as in vitro ADME. The conditions noted are these: for microsomal CLint: liver microsomes. In general terms: Liver microsomes are vesicles of endoplasmic reticulum, rich in cytochrome P450 enzymes.
For data set [5], the system named is HepG2 cells. Kind of data set: Drug toxicity to HepG2 cells (MTT, 48 h). It is filed as cell-based, human. The conditions noted are these: tested concentration ranges based on compound solubility. Summed up: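 HepG2 cells plated overnight, then exposed 48 h to twelve 1.6-fold dilutions (57–10,000 ng/mL) in duplicate at 37° C, 5% CO2. MTT added for 1 h at room temperature; formazan dissolved in acidified isopropanol, absorbance read.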

The test system of data set [6] is T. congolense IL3000. Kind of data set: In vitro drug sensitivity assay for T. congolense (72 h). It is filed as cell-based. To be noted: Trypanosoma congolense, IL3000 strain. As to the method:
In vitro drug sensitivity assay for T. congolense (72 h): Compounds were tested in vitro for efficacy against the IL3000 T. congolense (drug sensitive) strain which was originally derived from the Trans Mara I strain, isolated from a bovine in 1966 in Kenya. […] Compounds were assayed in at least three separate, independent experiments and an 11-point dilution curve was used to determine the EC50 values. Bloodstream form trypanosomes were supported in HMI-9 medium containing 20% bovine serum and were incubated with test compounds for 69 h at 34°C in a humidified atmosphere containing 5% CO2. Thereafter, 10 μL of Resazurin dye (12.5 mg in 100 mL of phosphate-buffered saline, Sigma-Aldrich, Buchs, Switzerland) was added for an additional 3 h. Plates were read using a fluorescence plate reader (Spectramax, Gemini XS, Bucher Biotec, Basel, Switzerland) using an excitation wavelength of 536 nm and an emission wavelength of 588 nm.

Data set [7] concerns T. cruzi amastigote (Tulahuen strain expressing β-galactosidase). Kind of data set: Intracellular T. cruzi assay in 3T3 cells (beta-galactosidase, 96 h). It is filed as cell-based, Trypanosoma cruzi. To be noted: for EC50: Trypanosoma cruzi, TULAHUEN, read-out: T. cruzi amastigote EC50. Summed up:
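3T3 cells in phenol-red-free DMEM with 2% FBS were infected with Tulahuen β-galactosidase trypomastigotes, 5×10^4 per well, and exposed to compounds from 50 μM in 1:2 serial dilutions, in triplicate. After 96 h at 37°C, 5% CO2, 500 μM CPRG in PBS with 0.5% NP40 was added for 4 h; absorbance was read at 590–595 nm.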

A short description of data set [8]: LogD7.4. The conditions noted are these: pH 7.4. It is filed as physicochemical.
Data set [9] can be described thus: Aqueous solubility. It is filed as physicochemical.
Data set [10] is described as follows: Human plasma protein binding. It is filed as in vitro ADME. The conditions noted are these: for fraction unbound: read-out: Human PPB (converted).
Data set [11] in a line: Rat hepatocyte intrinsic clearance. It is filed as in vitro ADME. To be noted: for hepatocyte CLint: hepatocytes.
For data set [12], the system named is T. b. brucei (strain 427). Kind of data set: T. b. brucei proliferation assay (PrestoBlue, 48 h). The conditions noted are these: Trypanosoma brucei. It is filed as cell-based, Trypanosoma brucei brucei. Summed up:
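T. b. brucei strain 427, 2.5×10^3 per well in HMI-9, exposed to compounds from 50 μM in 1:2 dilutions, in triplicate. Incubated 48 h at 37°C, 5% CO2. PrestoBlue added for 4 h more, fluorescence read at ex 530/em 590 nm.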

The subject of data set [13] is P. fal. D6. Also noted: method as in PMID 26087257, PMID 29301082. To be noted: previously reported; cited from earlier work.
On the set-up of data set [14]: method as in PMID 29301082. The conditions noted are these: lapatinib, Fig 1; cited from earlier work.

The EC50 is the concentration needed to bring the measured effect to its halfway point. One may read the solubility as the dissolved amount per volume that the medium holds. The term hepatocyte CLint denotes the rate of metabolic loss divided by the concentration. Lower therefore signals slow turnover. With `COc1ccc(Nc2ccnc3cc(-c4cnc(N5CCN(C)CC5)nc4)ccc23)cc1Cl` [Compound 23], the EC50 in data set [1] is 2000 nM; in data set [2], 40 nM; in [6], 140 nM; in [7] (NIH3T3, 96 h), 620 nM. The “3T3 TC50” value in data set [3] worked out at 4.9 µM. Moreover, in data set [4], the “Human Liver Microsome CLint” value came out at 170 µL/min/mg. In addition, in data set [5], the “HepG2 TC50” value is above 3 µM. The LogD7.4 in data set [8] was 4.3. This compound came in with a solubility in data set [9] below 1 µM. Moreover, in [10], the “Human PPB” value is recorded as 98%. For the same compound, the hepatocyte CLint in [11] was found to be 45 µL/min/1e6 cells.
Usually microsomal CLint stands for the rate of metabolic loss divided by the concentration. As usually defined, the logD is the decadic logarithm of the distribution of all forms, ionised or not, between an organic phase and buffer at a given pH. A high value points to a more lipophilic compound. As to `COc1ccc(Nc2ccnc3cc(-c4ccc(S(=O)(=O)N5CCN(C)CC5)cc4)ccc23)cc1Cl` [Compound 6], the EC50 in data set [12] was found to be 220 nM; in data set [1], 1400 nM; in [2], 160 nM; in data set [6] it was 860 nM; in data set [7] (NIH3T3, 96 h), 3800 nM. The compound also gave a microsomal CLint in data set [4] of 270 µL/min/mg. Besides, the logD in data set [8] is below 1. The compound further had a solubility in [9] of 100 µM (≈ 52.3 µg/mL). Further, in data set [10], the “Human PPB” value came to 99%. In data set [11], this compound displayed a hepatocyte CLint of 44 µL/min/1e6 cells.
For `CN1CCN(S(=O)(=O)c2ccc(-c3ccc4c(Nc5ccc(OCc6cccc(F)c6)c(Cl)c5)ccnc4c3)cc2)CC1` [Compound 1], the EC50 in data set [12] was 79 nM; in data set [1], 1600 nM; in data set [2], 40 nM; in data set [6], 140 nM; in data set [7] (NIH3T3, 96 h), 730 nM; in data set [13], 19 nM. In addition, the microsomal CLint in [4] turned out to be 140 µL/min/mg. The same compound yielded a solubility in [9] of 0.3 µM (≈ 0.185 µg/mL). Besides, the fraction unbound in [10] was below 0.01. For the same compound, the “Rat Hepatocyte CLint” value in data set [11] is 20 μL/min/10^6 cells.
For the compound `Fc1cccc(COc2ccc(Nc3ccnc4cc(-c5cn[nH]c5)ccc34)cc2Cl)c1` [Compound 16], the EC50 in data set [12] was 110 nM; in data set [1], 830 nM; in data set [2], 150 nM; in [6], 470 nM; in data set [7] (NIH3T3, 96 h) it was 920 nM. Further, in data set [4], the microsomal CLint was below 3 µL/min/mg. Further, the “SI (T. cruzi)” value in data set [7] (selectivity index calculated relative to 3T3 cells) is 2.5. This compound had a logD in data set [8] of 4.6. In addition, in [9], the solubility was determined as 12 µM (≈ 5.34 µg/mL). In [10], the fraction unbound is below 0.01. In [11], this compound had a hepatocyte CLint of 17 µL/min/1e6 cells.
With `CS(=O)(=O)CCNCc1ccc(-c2ccc3ncnc(Nc4ccc(OCc5cccc(F)c5)c(Cl)c4)c3c2)o1` [Lapatinib, lapatinib, reference compound], the EC50 is 11000 nM in [1]; 13000 nM in [7] (NIH3T3, intracellular in 3T3 cells, 96 h); 470 nM in [13]. Also, the solubility in data set [14] is 12 µM (≈ 6.97 µg/mL).
